Measurements reported in BindingDB's records for patent US12414952 (Merck Sharp & Dohme, 2025).

Biological target: Adenosine receptor A2a (Homo sapiens, UniProt P29274)
Assay: A2a binding affinity assay C
Experimental: Method (C): Measurement of A2a Binding Affinity Using an Alternative Radioligand Binding AssayMembranes used in this procedure were made by washing cell cultures twice with DPBS buffer (Dulbecco's phosphate buffered saline without calcium and magnesium, ThermoFisher Scientific, Cat. No. A1285601), and harvesting the cell cultures by mechanical scraping. The cells were collected by centrifugation and re-suspended in 10 mM HEPES, pH 7.4 containing 0.1 mM benzamidine (Sigma, Cat. No. B6506) and 0.1 mM PMSF (phenylmethylsulfonyl fluoride, Sigma, Cat. No. 10837091001). Cells were freeze-thawed twice in a dry ice/ethanol bath and homogenized with 25 to 30 strokes in a glass dounce homogenizer (Wheaton, Cat. No. 357546). Membranes were pelleted at 40,000×g for 20 min at 4° C. and re-suspended in assay buffer (5 mM HEPES, pH 7.4, 5 mM MgCl2; supplemented with 0.1 mM benzamidine) at a protein concentration of 2.6 mg/mL. Protein concentration was determined by the Bio-Rad method (Bio-Rad, Cat. No. 5000002). […] After normalization to total and non-specific binding, the percent effect at each compound concentration was calculated. The plot of percent effect versus the log of compound concentration was analyzed electronically using a 4-parameter logistic fit based on the Levenberg-Marquardt algorithm to generate IC50 values.

Adenosine receptor A2a, sequence (P29274 whole entry): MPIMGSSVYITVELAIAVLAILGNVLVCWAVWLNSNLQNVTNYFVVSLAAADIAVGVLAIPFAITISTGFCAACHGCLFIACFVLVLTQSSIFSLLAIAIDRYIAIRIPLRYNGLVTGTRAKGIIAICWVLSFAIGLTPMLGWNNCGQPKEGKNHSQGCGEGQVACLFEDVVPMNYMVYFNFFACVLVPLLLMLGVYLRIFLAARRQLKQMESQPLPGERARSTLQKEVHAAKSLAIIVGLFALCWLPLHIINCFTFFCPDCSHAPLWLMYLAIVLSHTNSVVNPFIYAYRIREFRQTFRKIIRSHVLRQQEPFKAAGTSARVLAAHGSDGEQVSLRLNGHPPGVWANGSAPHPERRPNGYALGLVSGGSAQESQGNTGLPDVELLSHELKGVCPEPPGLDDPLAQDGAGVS

Compound `Nc1nc(-c2ccccc2)c(C2CC2)c2nc(CCN3CC(F)(F)C3)nn12` [US12414952, Example 20.6] has an IC50 of 122 nM.
